Measurements taken from patent US20100152129A1 (priority 2008, published 2010).
Where two headings read alike, the source gives them in different places.

What was measured:
Panc-1 cells [1] = assay: Microarray gene expression analysis; type: cell-based, human; conditions: Panc-1, microarray
From the text: The goal of the microarray analysis was to evaluate putative gene expression signatures associated with the in vitro synergistic effect of the combination therapy of Gemcitabine with […]-00 in Panc-1 cells. The time points (3 hrs, 6 hrs, 12 hrs) were chosen to establish early molecular changes in the transcription profile for probable biomarkers and mechanism of action for the combination therapy. Approximately 20 million cells were lysed in Trizol Reagent (Invitrogen Corp, USA) and passed through a 21-gauge needle for 5-10 times before RNA extraction was performed. Total RNA extraction was performed using the RNeasy Mini kit (Qiagen, USA) according to the manufacturer's protocol. The final total RNA was eluted in nuclease-free water and the concentration/purity was determined by Nanodrop spectrophotometer (Thermo Fisher Scientific, Delaware, USA). cDNA generation and labeling: 20 μg of total RNA was reverse transcribed using amino allyl dUTP and oligo dT, the resulting cDNA was indirectly labeled with Cy3/Cy5 dyes (GE Healthcare, USA) using a fluorescent labeling kit (Promega Biosciences, USA). The concentration and dye incorporation of the labeled products were determined by Nanodrop spectrophotometer (Thermo Fisher Scientific, Delaware, USA). Equal amounts of labeled cDNA were denatured at 95° C. for 5 mins, cooled and microfuged at 13200 rpm for 5 mins before hybridization. Array fabrication and hybridization: 70-mer transcript oligonucleotides representing 36,480 human genes was purchased from Operon Biotechnologies (Germany) and spotted onto aminosilane coated glass slides (ArrayIt, USA) by contact printing using a Omnigrid (OG100) spotter (Genomic Solutions Inc, USA). Post printing, the slides were cross-linked with UV light at […], vacuumed, sealed and stored in the dark. The slides were pre-processed for background reduction using Pronto (Promega Life sciences, USA) pre-hyb kit as per the manufacturer's instructions. Hybridization was carried out in the GeneTAC Hybstation (Genomic Solutions Inc, USA) for 18 hrs. The hybridization protocol is as follows: 6 hrs at 42° C. (with agitation), 6 hrs at 35° C. (with agitation), and 6 hrs at 30° C. (with agitation). Post hybridization, the arrays were washed according to the manufacturer's protocol. The slides were dried by centrifugation at 1600 rpm for 5 mins. Scanning and image analysis: Post drying, the slides were scanned in a laser scanner (Genomic Solutions, USA) for Cy3 and Cy5 detection. The PMT settings were adjusted using the auto-exposure feature of the scanner. The TIFF files thus generated were exported to GeneTAC Integrator software (Genomic Solutions, USA) for image analysis. The resultant CSV file containing the annotated genome and the corresponding ratios were further used for data analysis.

Panc1 cells = conditions: human
Panc-1 cells [2] = assay: CCK-8 based cytotoxicity assay; type: cell-based; conditions: Gem 10 nM
From the text: CCK-8 based cytotoxicity assay is a sensitive nonradioactive colorimetric assay for determining the number of viable cells in cell proliferation and cytotoxicity assays. WST-8 (2-(2-methoxy-4-nitrophenyl)-3-(4-nitrophenyl)-5-(2,4-disulfophenyl)-2H tetrazolium, monosodium salt) is bioreduced by cellular dehydrogenases to an orange formazan product that is soluble in tissue culture medium. The amount of formazan produced is directly proportional to the number of living cells.
Test System: The Panc-1 cell line was procured from ATCC (American Tissue type Culture Collection USA, catalog number: CRL-1469) and the frozen vial was stored in liquid nitrogen container.
Panc-1 cells were seeded at a density of 3000 cells/well in a 96 well plate and allowed to recover for 24 hrs in a CO2 incubator at 37° C. […] The final DMSO concentration was 0.5% in wells. Plates were incubated for 24, 48, and 72 hrs. At the end of incubation CCK-8 was added and kept at 37° C. for 3 hrs following which absorbance was measured at 450 nm.

| Compound | CDK8 gene expression value (log value of intensities) (Panc-1 cells [1]) | DICER1 gene expression value (log value of intensities) (Panc-1 cells [1]) | DLG5 gene expression value (log value of intensities) (Panc-1 cells [1]) | DNAI1 gene expression value (log value of intensities) (Panc-1 cells [1]) | FA38A gene expression value (log value of intensities) (Panc-1 cells [1]) | FGF5 gene expression value (log value of intensities) (Panc-1 cells [1]) | HELLS gene expression value (log value of intensities) (Panc-1 cells [1]) | HIST1H2BO gene expression value (log value of intensities) (Panc-1 cells [1]) | ID1 gene expression value (log value of intensities) (Panc-1 cells [1]) | MKKS gene expression value (log value of intensities) (Panc-1 cells [1]) | PPIL4 gene expression value (log value of intensities) (Panc-1 cells [1]) | RRM2 gene expression value (log value of intensities) (Panc-1 cells [1]) | SLC19A2 gene expression value (log value of intensities) (Panc-1 cells [1]) | SNX7 gene expression value (log value of intensities) (Panc-1 cells [1]) | TMPRSS3 gene expression value (log value of intensities) (Panc-1 cells [1]) | other results |
| --- | --- | --- | --- | --- | --- | --- | --- | --- | --- | --- | --- | --- | --- | --- | --- | --- |
| CN1CC[C@@H](c2c(O)cc(O)c3c(=O)cc(-c4ccccc4Cl)oc23)[C@@H]1CO.Cl (relative stereo) [P276-00, (+)-trans-2-(2-Chloro-phenyl)-5,7-dihydroxy-8-(2-hydroxy-methyl-1-methyl-pyrrolidin-3-y1)-chromen-4-one hydrochloride] | 0.16 | 0.14 | 0.25 | −0.20 | −0.93 | 0.23 | 0.62 | −0.39 | 0.18 | −0.08 | 0.30 | −0.14 | 0.97 | −0.12 | 0.33 | – |
| Nc1ccn([C@@H]2O[C@H](CO)[C@@H](O)C2(F)F)c(=O)n1 [Gemcitabine, 2′, 2′-difluorodeoxycytidine] | −0.03 | −0.16 | −0.19 | 0.03 | −0.70 | 0.28 | 0.40 | −0.71 | −0.60 | −0.02 | 0.36 | 0.69 | 0.37 | 0.27 | 0.85 | % Cytotoxicity in Panc1 cells (Panc1 cells; 6 h): 2.31%; % Cytotoxicity in Panc1 cells (Panc1 cells; 16 h): 6.54%; % Cytotoxicity in Panc1 cells (Panc1 cells; 36 h): 7.23%; % Cytotoxicity (Panc-1 cells [2]; 24 hrs): 21.997%; % Cytotoxicity (Panc-1 cells [2]; 48 hrs): 27.571%; % Cytotoxicity (Panc-1 cells [2]; 72 hrs): 31.47%; % Cytotoxicity (Panc-1 cells [2]; 72 hrs, listed as Gem): 31.471% |
